{"source": "patent US20250298027A1", "about": "“METHOD OF EVALUATING SMALL MOLECULE DISTRIBUTION USING TELLUROPHENE ANALOGUES” (THE GOVERNING COUNCIL OF THE UNIVERSITY OF TORONTO, priority 2022, published 2025)", "key": {"Top2": {"target": "T1, Top2 (Homo sapiens, UniProt P11388)", "T1 construct": "purchased TopoGEN, Inc", "T1 sequence (P11388 whole entry)": "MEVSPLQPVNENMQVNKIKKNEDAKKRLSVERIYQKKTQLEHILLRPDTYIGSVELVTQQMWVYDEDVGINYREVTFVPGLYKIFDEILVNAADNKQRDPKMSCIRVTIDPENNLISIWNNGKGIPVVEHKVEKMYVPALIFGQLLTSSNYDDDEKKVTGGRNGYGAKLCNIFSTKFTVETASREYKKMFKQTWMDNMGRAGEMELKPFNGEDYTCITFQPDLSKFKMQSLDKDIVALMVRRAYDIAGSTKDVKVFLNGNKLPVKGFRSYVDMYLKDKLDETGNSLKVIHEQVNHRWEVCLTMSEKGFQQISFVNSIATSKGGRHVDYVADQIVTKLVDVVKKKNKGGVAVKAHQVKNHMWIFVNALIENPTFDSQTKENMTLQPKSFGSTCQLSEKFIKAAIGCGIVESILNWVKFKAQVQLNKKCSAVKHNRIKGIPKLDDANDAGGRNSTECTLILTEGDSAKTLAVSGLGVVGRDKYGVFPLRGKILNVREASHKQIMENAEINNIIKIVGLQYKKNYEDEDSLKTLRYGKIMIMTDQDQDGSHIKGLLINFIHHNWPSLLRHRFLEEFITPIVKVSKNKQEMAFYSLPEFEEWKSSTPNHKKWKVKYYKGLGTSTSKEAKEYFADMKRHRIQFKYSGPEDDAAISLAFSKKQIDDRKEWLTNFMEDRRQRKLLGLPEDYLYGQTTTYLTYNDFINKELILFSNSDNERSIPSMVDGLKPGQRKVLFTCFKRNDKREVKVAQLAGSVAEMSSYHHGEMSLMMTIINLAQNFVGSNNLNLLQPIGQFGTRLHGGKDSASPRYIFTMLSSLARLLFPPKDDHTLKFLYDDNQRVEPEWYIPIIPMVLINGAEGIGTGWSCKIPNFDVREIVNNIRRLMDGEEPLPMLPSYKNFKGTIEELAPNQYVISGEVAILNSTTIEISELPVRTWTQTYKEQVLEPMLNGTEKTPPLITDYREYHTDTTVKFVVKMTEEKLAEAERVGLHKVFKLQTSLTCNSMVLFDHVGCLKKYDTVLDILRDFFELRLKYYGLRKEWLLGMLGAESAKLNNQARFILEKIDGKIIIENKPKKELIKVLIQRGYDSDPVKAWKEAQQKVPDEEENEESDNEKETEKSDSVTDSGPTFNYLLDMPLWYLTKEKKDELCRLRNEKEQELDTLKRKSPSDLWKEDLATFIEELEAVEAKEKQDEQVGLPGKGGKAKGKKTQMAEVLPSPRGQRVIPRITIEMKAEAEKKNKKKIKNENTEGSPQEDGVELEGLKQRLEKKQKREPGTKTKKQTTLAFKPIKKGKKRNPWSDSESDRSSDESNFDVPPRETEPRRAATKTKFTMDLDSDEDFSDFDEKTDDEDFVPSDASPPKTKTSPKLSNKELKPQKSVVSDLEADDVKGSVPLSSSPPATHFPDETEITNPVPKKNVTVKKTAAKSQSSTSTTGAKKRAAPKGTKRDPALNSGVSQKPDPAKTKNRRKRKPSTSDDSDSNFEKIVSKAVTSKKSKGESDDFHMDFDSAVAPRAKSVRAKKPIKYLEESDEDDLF", "experiment": "Top2 decatenation assay using kinetoplast DNA", "assay_type": "biochemical", "protocol": "The relative Top2 inhibitory activity of 1 in comparison to teniposide was evaluated in decatenation assays using kinetoplast DNA (kDNA). Decatenation of the DNA, catalyzed by Top2, can be readily resolved using agarose gel electrophoresis.\nTop2 decatenation assay: The assay was performed according to manufacturer's protocol (TopoGEN, Inc.). The total reaction volume was 20 μL of assay buffer (120 mM KCl, 50 mM Tris-HCl, 10 mM MgCl2, 0.5 mM DTT, 0.5 mM ATP, and 30 μg/mL BSA) and 120 ng of kinetoplast DNA (kDNA) substrate. One unit of TopoII enzyme in was added to reaction microfuge tubes in the presence or absence of inhibitor. The reaction was incubated for 30 min at 37° C. The reaction was stopped by addition of 5 μL of stop buffer (5% sarkosyl, 0.025% bromophenolblue, and 50% glycerol). The samples were then analyzed using electrophoresis using a 1% agarose gel in Tris-borate-EDTA buffer with 0.5 pg/mL ethidium bromide stain. Gels were imaged using Syngene G: Box Gel Imager (Chemi-XT4 GENESys software with preset for ethidium bromide stained agarose gels). Band intensities were analyzed using ImageJ software."}, "HL-60 cells": {"system": "HL-60 cells", "experiment": "WST-1 viability assay in HL-60 cells", "assay_type": "cell-based", "details": "Homo sapiens, HL-60, 24 h, read-out: inhibition of proliferation of HL-60 cells", "protocol": "The toxicity of 1 was compared to teniposide in HL-60 cells after incubation for 24 hours using a WST-1 viability assay.\nWST-1 metabolic cytotoxicity assay: HL-60 cells (ATCC® CCL-240TM) were maintained in DMEM media with 2 mM L-glutamine (Gibco) supplemented with 20% calf serum and 100× dilution of penicillin-streptomycin solution (Gibco). Cells were maintained at 37° C. in a humidified atmosphere of 5% CO2 in air. HL-60 cells (100 pL) were seeded into a 96 well clear at a density of 5×10^5 cells/mL. Cells were treated with either DMSO or appropriate inhibitor from DMSO stocks. […] Cells were incubated for 24 h at 37° C. under a 5% CO2 atmosphere. WST-1 reagent (10 pL; Roche Diagnostics, 05015944001) was added to each well and gently mixed by pipetting. Cells were incubated for 1 h at 37° C. under 5% CO2 atmosphere. UV-vis absorbance measurements of each well at 450 nm was recorded using a TECAN Safire 2 plate reader. Data was background corrected against wells that contained cell growth media without cells and WST-1. Experiment was performed in triplicate."}, "PANC-1 cells": {"system": "PANC-1 cells", "experiment": "alamarBlue viability assay in PANC-1 cells", "assay_type": "cell-based, Human", "details": "maximum dose of 25 μM, 72 hours exposure", "protocol": "Similarly, PANC1 cells were characterized for later in vivo experiments. Using an alamarBlue viability assay and a proliferative assay, PANC-1 cells were incubated with 1 or teniposide.\nAlamarBlue assay: PANC-1 cells were seeded into black, clear-bottom 96-well assay plates (Corning; CLS3603) and incubated for 24 hours. The medium was replaced with […] of teniposide or compound 1. After 72 hours exposure to drug, alamarBlue (Thermo Fisher Scientific; DAL1100) cell viability reagent was added and incubated for 4 hours at 37° C. Fluorescence intensity was measured using an excitation wavelength of 560 nm and an emission of 590 nm. Cell viability was calculated by normalizing to an untreated control."}, "pH2AX^Ser139 [1]": {"system": "pH2AX^Ser139", "experiment": "pH2AX Western blotting in PANC-1 cells", "assay_type": "cell-based, Human", "details": "1 μM, 24 and 48 hours", "protocol": "Next, the ability of 1 to induce DSBs—the dominant type of DNA damage resulting from Top2 inhibition was investigated. In response to DSBs, a cascade of DNA repair mechanisms are triggered, including-phosphorylation of the histone variant H2AX at Ser139. Thus, the level of pH2AX^Ser139 serves as a reliable marker for Top2-linked DSBs. Western blotting was used to measure pH2AX^Ser139 in PANC-1 cells treated with 1 μM of either 1 or teniposide for 24 and 48 hours.\npH2AX Blotting: PANC-1 cells (0.5×10^6) cells were seeded in 60 mm plastic petri dishes (Corning Inc. NY) and incubated for 18 h. The spent medium is removed and replaced with fresh medium containing drug ([…]) and incubated for either 24 or 48h. Control cells were treated with DMSO only. The cells were then lysed with RIPA buffer (25 mM Tris·HCl PH 7.6, 150 mM NaCl, 1% NP-40, 1% sodium deoxycholate, 0.1% SDS) (ThermoFisher Scientific) containing Halt Protease Inhibitor Cocktail (Cat. No. 78410) and Halt Phosphatase Inhibitor Cocktail (Cat. No. 78420) as per manufacturer's protocol. […] Antibodies (Abcam, Cambridge, MA) targeting the following proteins were used H2AX (S139) (ab11174, polyclonal) and β-tubulin (ab6046, polyclonal)."}, "pH2AX^Ser139 [2]": {"system": "pH2AX^Ser139", "experiment": "pH2AX immunohistochemistry of PANC-1 xenograft tumour sections", "assay_type": "in vivo, mice", "details": "20 mg/kg IP, 2 hours", "protocol": "PANC-1 xenograft-bearing mice were injected with either teniposide or the Te-teniposide analogue 1 IP. A dose of 20 mg/kg was selected based on literature reports detailing teniposide drug delivery strategies. After 2 hours, mice were sacrificed and tissues of interest were harvested, formalin fixed, and paraffin embedded. Tissue sections (5 um) were cut and mounted onto microscopy slides. The expression of pH2AX^Ser139 levels were first assessed by immunohistochemistry. Serial sections derived from PANC-1 xenograft tumours were stained with primary antibody and subsequently HRP-conjugated secondary antibody for standard brown staining. DSBs are indicated by large, discrete pH2AX^Ser139 foci. Representative images of immunostained slides show increased pH2AX^Ser139 levels in treated mice relative to saline injected control with clear, punctate staining (FIG. 7)."}, "[3]": {"experiment": "IMC analysis of tellurium in PANC-1 xenograft tumour sections", "from_the_text": "For IMC™ analysis, the initial objective was to visualize tellurium signal distribution in tumour sections and subsequently measure relative tellurium content in individual cells. Tumour sections were dewaxed, rehydrated and washed. Slides then were stained with Ir-intercalator to visualize cell nuclei, and then imaged by IMC™. The ^125Te isotope was visualised. […] Without wishing to be bound by theory, it was hypothesized that the processing of the FFPE tissues contributes to loss of tellurium signal as the teniposide interaction with the cells is largely non-covalent, thus the multiple wash steps required for dewaxing (xylene and ethanol washes) might have removed bound 1. To reduce the number of tissue processing steps, snap frozen samples prepared from the same tumours were sectioned and analyzed by IMC™.\nTo determine the corresponding concentration of Te present in the sample a set of standards containing increasing concentrations of Te were analyzed by IMC™. Based on the total counts present in each standard Te spot a count/Te atom constant was calculated (FIG. 8E).\nGeneration of murine PANC-1 xenograft model: All 6-week-old female NOD SCID mice (Charles River (Wilmington, MA) were maintained under specific pathogen-free (SPF) conditions at the Princess Margaret Cancer Centre (PMCC) facility. All animal experiments in this study were performed in accordance with the Animal Research Committee guidelines of the University Health Network institution. The subcutaneous PANC-1 xenograft mice were generated as described previously in Telox studies. The vehicle was prepared as follows: 30 mg benzyl alcohol, 60 mg N,N-dimethylacetamide, 500 mg purified Cremophor EL (Kolliphor EL), and 2.1 mL dehydrated alcohol were combined in a vial. The solution was topped with distilled water for a final volume of 5 mL. The pH of the clear solution is adjusted to pH ˜5 with maleic acid. For injections, drug was diluted with vehicle for a final concentration of 10 mg/mL and administered at 20 mg/kg by I.P. The mice were maintained in three groups; group 1 mice were injected with teniposide, group 2 received 1, and group 3 with normal saline. After 2 hours, mice were scarified, and tumors were extracted. […]"}}}
{"smiles": "COc1cc([C@@H]2c3cc4c(cc3[C@@H](OC3OC5COC(c6ccc[te]6)OC5C(O)C3O)[C@H]3COC(=O)C23)OCO4)cc(OC)c1O", "note": "(stereo partly shown) [Compound 1, Tellurium-labelled teniposide]", "values": [{"measurement": "IC50", "setting": "Top2", "result": 5.6, "unit": "µM"}, {"measurement": "inhibition of the decatenation reaction", "setting": "Top2; 5, 10, 25 and 50 μM", "result": "dose-dependent inhibition"}, {"measurement": "inhibition at 50 µM", "setting": "HL-60 cells", "result": "≤ 60", "unit": "%"}, {"measurement": "loss of cell viability in PANC-1 cells", "setting": "PANC-1 cells", "result": "almost complete loss of cell viability"}, {"measurement": "levels of pH2AX^Ser139 relative to DMSO-treated control", "setting": "pH2AX^Ser139 [1]", "result": "Increased levels"}, {"measurement": "pH2AX^Ser139 levels in tumour sections relative to saline injected control", "setting": "pH2AX^Ser139 [2]", "result": "increased"}, {"measurement": "^125Te signal in snap frozen tumour sections by IMC", "setting": "[3]; 20 mg/kg IP, 2 h before sacrifice, frozen sections", "result": "signals were observed"}, {"measurement": "Te signal in FFPE tumour sections by IMC", "setting": "[3]; 20 mg/kg IP, 2 hours, FFPE sections, ^125Te", "result": "no Te signal above background"}, {"measurement": "Te signal in samples collected at later timepoints after dosing", "setting": "[3]; frozen sections, later timepoints", "result": "not observed"}, {"measurement": "average concentration in the tissue", "setting": "[3]; frozen tumour sections, at the time of analysis, no precise value", "result": "low tens"}]}
